Source: patent US10385057B2, “Pyrazole compounds and methods of making and using same” (Lundbeck La Jolla Research Center, Inc., priority 2015, dated 2019)

Key:
MAGL = target: T1, MAGL (Mus musculus, UniProt O35678); experiment: In vitro competitive activity-based protein profiling, mouse MAGL; type: biochemical; conditions: 1 μM, read-out: MAGL % inh. 1 μM (mouse)
T1 construct: mouse brain membrane fraction or cell lysates for mouse assays; from tissue
T1 sequence (O35678 1-303): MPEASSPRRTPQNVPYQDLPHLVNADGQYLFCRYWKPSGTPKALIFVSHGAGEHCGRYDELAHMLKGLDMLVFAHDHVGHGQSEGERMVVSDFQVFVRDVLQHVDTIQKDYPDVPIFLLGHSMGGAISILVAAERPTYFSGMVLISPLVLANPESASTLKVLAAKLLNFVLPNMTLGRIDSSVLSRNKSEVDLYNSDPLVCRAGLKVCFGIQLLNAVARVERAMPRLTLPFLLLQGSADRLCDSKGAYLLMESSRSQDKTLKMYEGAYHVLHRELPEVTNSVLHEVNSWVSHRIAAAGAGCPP
Summary of the method: (§1)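 Activity measured as fluorescent gel-band intensity of MAGL and FAAH after SDS-PAGE. Before labelling with FP-Rh or HT-01 (30 min, 37 °C), proteomes at 1.0 mg/mL (mouse brain membrane or lysates; human prefrontal cortex or cell membranes) were exposed to varying inhibitor concentrations for 30 min at 37 °C.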

FAAH = target: T2, FAAH (Mus musculus, UniProt O08914); experiment: In vitro competitive activity-based protein profiling, mouse FAAH; type: biochemical; conditions: 1 μM, read-out: FAAH % inh. 1 μM (mouse)
T2 construct: mouse brain membrane fraction or cell lysates for mouse assays; from tissue
T2 sequence (O08914 1-579): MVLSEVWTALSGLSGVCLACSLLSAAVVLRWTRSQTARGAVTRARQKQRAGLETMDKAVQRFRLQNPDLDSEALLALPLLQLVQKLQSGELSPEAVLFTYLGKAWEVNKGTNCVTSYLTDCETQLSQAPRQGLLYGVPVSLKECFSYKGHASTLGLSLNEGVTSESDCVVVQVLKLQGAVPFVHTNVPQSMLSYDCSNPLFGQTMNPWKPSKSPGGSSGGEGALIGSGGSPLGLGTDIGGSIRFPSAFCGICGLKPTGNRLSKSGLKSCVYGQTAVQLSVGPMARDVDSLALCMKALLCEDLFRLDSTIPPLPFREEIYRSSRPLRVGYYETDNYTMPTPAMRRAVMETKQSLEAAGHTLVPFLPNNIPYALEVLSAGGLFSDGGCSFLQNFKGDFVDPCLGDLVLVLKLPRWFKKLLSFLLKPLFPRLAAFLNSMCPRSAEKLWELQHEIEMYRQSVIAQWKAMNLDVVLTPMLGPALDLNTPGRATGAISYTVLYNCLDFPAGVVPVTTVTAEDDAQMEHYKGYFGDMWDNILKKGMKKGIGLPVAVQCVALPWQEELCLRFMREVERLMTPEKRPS
Summary of the method: as §1

NC(=O)c1cnn(C(=O)N2CCC3(CCN(Cc4ccc(-c5nccs5)cc4Cl)C3)C2)c1 (centres unmarked) [Example 201, 1-(7-(2-chloro-4-(thiazol-2-yl)benzyl)-2,7-diazaspiro[4.4]nonane-2-carbonyl)-1H-pyrazole-4-carboxamide] was tested, and the inhibition at 1 µM (MAGL) was ≥ 75% and the inhibition at 1 µM (FAAH) was ≥ 75%.

NC(=O)c1cnn(C(=O)N2CCC3(CCN(Cc4ccc(Cl)c(Cl)c4)C3)C2)c1 (centres unmarked) [Example 202, 1-(7-(3,4-dichlorobenzyl)-2,7-diazaspiro[4.4]nonane-2-carbonyl)-1H-pyrazole-4-carboxamide] was tested, and the inhibition at 1 µM (MAGL) was ≥ 75% and the inhibition at 1 µM (FAAH) was ≥ 75%.

NC(=O)c1cnn(C(=O)N2CCC3(CCN(Cc4ccc(N5CCCC5)cc4C(F)(F)F)C3)C2)c1 (centres unmarked) [Example 203, 1-(7-(4-(pyrrolidin-1-yl)-2-(trifluoromethyl)benzyl)-2,7-diazaspiro[4.4]nonane-2-carbonyl)-1H-pyrazole-4-carboxamide] was tested, and the inhibition at 1 µM (MAGL) was ≥ 75% and the inhibition at 1 µM (FAAH) was ≥ 75%.

NC(=O)c1cnn(C(=O)N2CCC3(CCN(Cc4ccc(N5CCOCC5)cc4Cl)C3)C2)c1 (centres unmarked) [Example 204, 1-(7-(2-chloro-4-morpholinobenzyl)-2,7-diazaspiro[4.4]nonane-2-carbonyl)-1H-pyrazole-4-carboxamide] was tested, and the inhibition at 1 µM (MAGL) was ≥ 75% and the inhibition at 1 µM (FAAH) was ≥ 75%.

With NC(=O)c1cnn(C(=O)N2CCC3(CCN(Cc4ccc(N5CCCC5)cc4Cl)C3)C2)c1 (centres unmarked) [Example 205, 1-(7-(2-chloro-4-(pyrrolidin-1-yl)benzyl)-2,7-diazaspiro[4.4]nonane-2-carbonyl)-1H-pyrazole-4-carboxamide] the inhibition at 1 µM (MAGL) was ≥ 75% and the inhibition at 1 µM (FAAH) was ≥ 75%.

For NC(=O)c1cnn(C(=O)N2CCC3(CCN(Cc4ccc(N5CCOCC5)c(C(F)(F)F)c4)C3)C2)c1 (centres unmarked) [Example 206, 1-(7-(4-morpholino-3-(trifluoromethyl)benzyl)-2,7-diazaspiro[4.4]nonane-2-carbonyl)-1H-pyrazole-4-carboxamide], the inhibition at 1 µM (MAGL) was ≥ 75% and the inhibition at 1 µM (FAAH) was ≥ 75%.

In the case of NC(=O)c1cnn(C(=O)N2CCC3(CCN(Cc4ccc(N5CCCC5)c(C(F)(F)F)c4)C3)C2)c1 (centres unmarked) [Example 207, 1-(7-(4-(pyrrolidin-1-yl)-3-(trifluoromethyl)benzyl)-2,7-diazaspiro[4.4]nonane-2-carbonyl)-1H-pyrazole-4-carboxamide], the inhibition at 1 µM (MAGL) is reported as ≥ 75% and the inhibition at 1 µM (FAAH) is reported as ≥ 75%.

NC(=O)c1cnn(C(=O)N2CCC3(CCN(Cc4ccc(C(F)(F)F)c(N5CCOCC5)c4)C3)C2)c1 (centres unmarked) [Example 208, 1-(7-(3-morpholino-4-(trifluoromethyl)benzyl)-2,7-diazaspiro[4.4]nonane-2-carbonyl)-1H-pyrazole-4-carboxamide] was tested, and the inhibition at 1 µM (MAGL) was ≥ 75% and the inhibition at 1 µM (FAAH) was ≥ 75%.

In the case of NC(=O)c1cnn(C(=O)N2CCC3(CCN(Cc4ccc(C(F)(F)F)c(N5CCCC5)c4)C3)C2)c1 (centres unmarked) [Example 209, 1-(7-(3-(pyrrolidin-1-yl)-4-(trifluoromethyl)benzyl)-2,7-diazaspiro[4.4]nonane-2-carbonyl)-1H-pyrazole-4-carboxamide], the inhibition at 1 µM (MAGL) is reported as ≥ 75% and the inhibition at 1 µM (FAAH) is reported as ≥ 75%.

For NC(=O)c1cnn(C(=O)N2CCC3(CCN(Cc4cc(N5CCCC5)cc(C(F)(F)F)c4)C3)C2)c1 (centres unmarked) [Example 211, 1-(7-(3-(pyrrolidin-1-yl)-5-(trifluoromethyl)benzyl)-2,7-diazaspiro[4.4]nonane-2-carbonyl)-1H-pyrazole-4-carboxamide], the inhibition at 1 µM (MAGL) was ≥ 75% and the inhibition at 1 µM (FAAH) was ≥ 75%.

For NC(=O)c1cnn(C(=O)N2CCC3(CCN(Cc4cc(N5CCOCC5)ccc4C(F)(F)F)C3)C2)c1 (centres unmarked) [Example 212, 1-(7-(5-morpholino-2-(trifluoromethyl)benzyl)-2,7-diazaspiro[4.4]nonane-2-carbonyl)-1H-pyrazole-4-carboxamide], the inhibition at 1 µM (MAGL) was ≥ 75% and the inhibition at 1 µM (FAAH) was ≥ 75%.

With NC(=O)c1cnn(C(=O)N2CCC3(CCN(Cc4cc(N5CCCC5)ccc4C(F)(F)F)C3)C2)c1 (centres unmarked) [Example 213, 1-(7-(5-(pyrrolidin-1-yl)-2-(trifluoromethyl)benzyl)-2,7-diazaspiro[4.4]nonane-2-carbonyl)-1H-pyrazole-4-carboxamide] the inhibition at 1 µM (MAGL) was ≥ 75% and the inhibition at 1 µM (FAAH) was 50 to 75%.

With CN(Cc1cc(C(F)(F)F)ccc1Cl)[C@H]1C[C@@H]2CN(C(=O)n3cc(C(N)=O)cn3)C[C@@H]2C1 [Example 214, 1-(trans-5-((2-chloro-5-(trifluoromethyl)benzyl)(methyl)amino)octahydrocyclopenta[c]pyrrole-2-carbonyl)-1H-pyrazole-4-carboxamide] the inhibition at 1 µM (MAGL) was ≥ 75% and the inhibition at 1 µM (FAAH) was ≥ 75%.

In the case of CN(Cc1cc(Cl)ccc1C(F)(F)F)[C@H]1C[C@@H]2CN(C(=O)n3cc(C(N)=O)cn3)C[C@@H]2C1 [Example 215, 1-(trans-5-((5-chloro-2-(trifluoromethyl)benzyl)(methyl)amino)octahydrocyclopenta[c]pyrrole-2-carbonyl)-1H-pyrazole-4-carboxamide], the inhibition at 1 µM (MAGL) is reported as ≥ 75% and the inhibition at 1 µM (FAAH) is reported as ≥ 75%.

In the case of CN(Cc1ccc(C(F)(F)F)c(N2CCCC2)c1)[C@H]1C[C@@H]2CN(C(=O)n3cc(C(N)=O)cn3)C[C@@H]2C1 [Example 216, 1-(trans-5-(methyl(3-(pyrrolidin-1-yl)-4-(trifluoromethyl)benzyl)amino)octahydrocyclopenta[c]pyrrole-2-carbonyl)-1H-pyrazole-4-carboxamide], the inhibition at 1 µM (MAGL) is reported as ≥ 75% and the inhibition at 1 µM (FAAH) is reported as ≥ 75%.

With CN(Cc1cc(N2CCCC2)cc(C(F)(F)F)c1)[C@H]1C[C@@H]2CN(C(=O)n3cc(C(N)=O)cn3)C[C@@H]2C1 [Example 217, 1-(trans-5-(methyl(3-(pyrroldin-1-yl)-5-(trifluoromethyl)benzyl)amino)octahydrocyclopenta[c]pyrrole-2-carbonyl)-1H-pyrazole-4-carboxamide] the inhibition at 1 µM (MAGL) was ≥ 75% and the inhibition at 1 µM (FAAH) was ≥ 75%.

In the case of CN(Cc1cc(C(F)(F)F)ccc1Cl)[C@@H]1C[C@@H]2CN(C(=O)n3cc(C(N)=O)cn3)C[C@@H]2C1 [Example 218, 1-(cis-5-((2-chloro-5-(trifluoromethyl)benzyl)(methyl)amino)octahydrocyclopenta[c]pyrrole-2-carbonyl)-1H-pyrazole-4-carboxamide], the inhibition at 1 µM (MAGL) is reported as ≥ 75% and the inhibition at 1 µM (FAAH) is reported as ≥ 75%.

In the case of CN(Cc1cc(Cl)ccc1C(F)(F)F)[C@@H]1C[C@@H]2CN(C(=O)n3cc(C(N)=O)cn3)C[C@@H]2C1 [Example 219, 1-(cis-5-((5-chloro-2-(trifluoromethyl)benzyl)(methyl)amino)octahydrocyclopenta[c]pyrrole-2-carbonyl)-1H-pyrazole-4-carboxamide], the inhibition at 1 µM (MAGL) is reported as ≥ 75% and the inhibition at 1 µM (FAAH) is reported as ≥ 75%.

In the case of CN(Cc1ccc(C(F)(F)F)c(N2CCCC2)c1)[C@@H]1C[C@@H]2CN(C(=O)n3cc(C(N)=O)cn3)C[C@@H]2C1 [Example 221, 1-(cis-5-(methyl(3-(pyrrolidin-1-yl)-4-(trifluoromethyl)benzyl)amino)octahydrocyclopenta[c]pyrrole-2-carbonyl)-1H-pyrazole-4-carboxamide], the inhibition at 1 µM (MAGL) is reported as ≥ 75% and the inhibition at 1 µM (FAAH) is reported as ≥ 75%.

With CN(Cc1cc(N2CCCC2)cc(C(F)(F)F)c1)[C@@H]1C[C@@H]2CN(C(=O)n3cc(C(N)=O)cn3)C[C@@H]2C1 [Example 222, 1-(cis-5-(methyl(3-(pyrrolidin-1-yl)-5-(trifluoromethyl)benzyl)amino)octahydrocyclopenta[c]pyrrole-2-carbonyl)-1H-pyrazole-4-carboxamide] the inhibition at 1 µM (MAGL) was ≥ 75% and the inhibition at 1 µM (FAAH) was ≥ 75%.

For CN(Cc1ccc(-c2cnccn2)cc1C(F)(F)F)[C@H]1C[C@@H]2CN(C(=O)n3cc(C(N)=O)cn3)C[C@@H]2C1 [Example 223, 1-(trans-5-(methyl(4-(pyrazin-2-yl)-2-(trifluoromethyl)benzyl)amino)octahydrocyclopenta[c]pyrrole-2-carbonyl)-1H-pyrazole-4-carboxamide], the inhibition at 1 µM (MAGL) was ≥ 75% and the inhibition at 1 µM (FAAH) was ≥ 75%.

In the case of CN(Cc1ccc(-c2nccs2)cc1C(F)(F)F)[C@H]1C[C@@H]2CN(C(=O)n3cc(C(N)=O)cn3)C[C@@H]2C1 [Example 224, 1-(trans-5-(methyl(4-(thiazol-2-yl)-2-(trifluoromethyl)benzyl)amino)octahydrocyclopenta[c]pyrrole-2-carbonyl)-1H-pyrazole-4-carboxamide], the inhibition at 1 µM (MAGL) is reported as ≥ 75% and the inhibition at 1 µM (FAAH) is reported as ≥ 75%.
